Assay in all cases: relative viability (nuclei count vs DMSO), 5 days (fraction); higher = more cells survive
Compound in assay [1]: CC1=C(C(=O)N2C=CSC2=N1)CCN3CCC(=C(C4=CC=CC=C4)C5=CC=C(C=C5)F)CC3 + NC(=O)Nc1cc(-c2cccc(F)c2)sc1C(=O)N[C@H]1CCCNC1 [AZD7762] (partner 0.2 µM)
Put shortly: (§1)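 Nuclei were stained with Hoechst during a one-step fixation (final 0.05% Triton X-100, 1% formaldehyde, 1 ug/ml Hoechst) carried out 5 days after dosing, then counted on 4× images. The cells, lung cancer lines in 1536-well plates, had been dosed by pin tool the day after seeding with one drug alone or a fixed anchor-drug dose plus five library-drug doses (not always all listed) in √10 steps. Relative viability is the nuclei count in treated wells divided by that in vehicle wells, and each value is the median of duplicate plates.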

Compound in assay [2]: CC1=C(C(=O)N2C=CSC2=N1)CCN3CCC(=C(C4=CC=CC=C4)C5=CC=C(C=C5)F)CC3 + C[C@@H](Oc1cc(-c2cnn(C3CCNCC3)c2)cnc1N)c1c(Cl)ccc(F)c1Cl [Crizotinib] (partner 1 µM)
A digest of the protocol: as §1

Compound in assay [3]: CC1=C(C(=O)N2C=CSC2=N1)CCN3CCC(=C(C4=CC=CC=C4)C5=CC=C(C=C5)F)CC3 + CC(=O)c1c(C)c2cnc(Nc3ccc(N4CCNCC4)cn3)nc2n(C2CCCC2)c1=O [Palbociclib] (partner 0.5 µM)
A digest of the protocol: as §1

Compound in assay [4]: CC1=C(C(=O)N2C=CSC2=N1)CCN3CCC(=C(C4=CC=CC=C4)C5=CC=C(C=C5)F)CC3 + O=C(CCCCCCC(=O)Nc1ccccc1)NO [Vorinostat] (partner 1 µM)
Put shortly: as §1

As to NCI-H2405, the relative viability in assay [1] (first compound 0.08 µM) worked out at 0.901; in assay [1] (first compound 0.8 µM), 0.725; in assay [1] (first compound 2.53 µM) it was 0.74; in assay [1] (first compound 8 µM) it was 0.55; in assay [2] (first compound 0.08 µM) it was 0.817; in assay [2] (first compound 0.253 µM) it was 0.788. The relative viability in assay [2] (first compound 0.8 µM) was 0.871; in assay [2] (first compound 2.53 µM), 0.858; in assay [2] (first compound 8 µM) it was 0.725; in assay [3] (first compound 0.08 µM), 0.609; in assay [3] (first compound 0.8 µM), 0.547; in assay [3] (first compound 2.53 µM) it was 0.576. In addition, the relative viability in assay [3] (first compound 8 µM) worked out at 0.476; in assay [4] (first compound 0.08 µM) it was 1.18; in assay [4] (first compound 0.8 µM), 1.08; in assay [4] (first compound 2.53 µM), 1.06; in assay [4] (first compound 8 µM), 0.789.

Consider NCI-H3122, for which the relative viability is 0.86 in assay [1] (first compound 0.08 µM); 1.05 in assay [1] (first compound 0.253 µM); 0.983 in assay [1] (first compound 0.8 µM); 1.14 in assay [1] (first compound 2.53 µM); 0.59 in assay [1] (first compound 8 µM); 0.286 in assay [2] (first compound 0.08 µM). Further, the relative viability in assay [2] (first compound 0.253 µM) turned out to be 0.262; in assay [2] (first compound 0.8 µM) it was 0.258; in assay [2] (first compound 2.53 µM), 0.316; in assay [2] (first compound 8 µM), 0.267; in assay [3] (first compound 0.08 µM), 0.178; in assay [3] (first compound 0.253 µM), 0.213. Also, the relative viability in assay [3] (first compound 0.8 µM) was determined as 0.192; in assay [3] (first compound 2.53 µM), 0.164; in assay [3] (first compound 8 µM), 0.157; in assay [4] (first compound 0.08 µM) it was 0.875; in assay [4] (first compound 0.253 µM) it was 1.1; in assay [4] (first compound 0.8 µM), 1.08. Further, the relative viability in assay [4] (first compound 2.53 µM) is 0.987; in assay [4] (first compound 8 µM) it was 0.516.

For PC-3 [JPC-3], the relative viability in assay [1] (first compound 0.08 µM) turned out to be 0.768; in assay [1] (first compound 0.8 µM), 0.815; in assay [1] (first compound 2.53 µM), 0.78; in assay [1] (first compound 8 µM), 0.736; in assay [2] (first compound 0.08 µM) it was 1.02; in assay [2] (first compound 0.253 µM), 0.984. Moreover, the relative viability was 1.15 in assay [2] (first compound 0.8 µM); 1.1 in assay [2] (first compound 2.53 µM); 0.919 in assay [2] (first compound 8 µM); 0.58 in assay [3] (first compound 0.08 µM); 0.576 in assay [3] (first compound 0.8 µM); 0.596 in assay [3] (first compound 2.53 µM). Also, the relative viability in assay [3] (first compound 8 µM) stood at 0.579; in assay [4] (first compound 0.08 µM), 0.746; in assay [4] (first compound 0.8 µM), 0.748; in assay [4] (first compound 2.53 µM), 0.879; in assay [4] (first compound 8 µM), 0.666.

For PC-14, the relative viability in assay [1] (first compound 0.08 µM) is 0.373; in assay [1] (first compound 0.253 µM), 0.312; in assay [1] (first compound 0.8 µM), 0.369; in assay [1] (first compound 2.53 µM) it was 0.371; in assay [1] (first compound 8 µM) it was 0.246; in assay [2] (first compound 0.08 µM), 0.919. Besides, the relative viability in assay [2] (first compound 0.253 µM) is 0.907; in assay [2] (first compound 0.8 µM), 0.875; in assay [2] (first compound 2.53 µM), 1.13; in assay [2] (first compound 8 µM), 0.716; in assay [3] (first compound 0.08 µM), 0.358; in assay [3] (first compound 0.253 µM), 0.574. Further, the relative viability was 0.455 in assay [3] (first compound 0.8 µM); 0.622 in assay [3] (first compound 2.53 µM); 0.328 in assay [3] (first compound 8 µM); 0.677 in assay [4] (first compound 0.08 µM); 0.901 in assay [4] (first compound 0.253 µM); 0.866 in assay [4] (first compound 0.8 µM). Also, the relative viability in assay [4] (first compound 2.53 µM) was 0.762; in assay [4] (first compound 8 µM) it was 0.623.

Regarding RERF-LC-KJ, the relative viability was 0.636 in assay [1] (first compound 0.08 µM); 0.936 in assay [1] (first compound 0.253 µM); 1.15 in assay [1] (first compound 0.8 µM); 0.945 in assay [1] (first compound 2.53 µM); 0.584 in assay [1] (first compound 8 µM); 0.789 in assay [2] (first compound 0.08 µM). The relative viability was determined as 0.851 in assay [2] (first compound 0.253 µM); 0.775 in assay [2] (first compound 0.8 µM); 0.835 in assay [2] (first compound 2.53 µM); 0.795 in assay [2] (first compound 8 µM); 1.18 in assay [3] (first compound 0.08 µM); 1.04 in assay [3] (first compound 0.253 µM). In addition, the relative viability in assay [3] (first compound 0.8 µM) came to 0.97; in assay [3] (first compound 2.53 µM) it was 0.991; in assay [3] (first compound 8 µM), 0.637; in assay [4] (first compound 0.08 µM), 0.617; in assay [4] (first compound 0.253 µM) it was 0.658; in assay [4] (first compound 0.8 µM) it was 0.793. For the same cell line, the relative viability in assay [4] (first compound 2.53 µM) is 0.716; in assay [4] (first compound 8 µM), 0.48.

For the origin of these results see the supplement of paper PMC10307832.
